Consider 14 compounds from patent publication US11919902B2, “Aryl-bipyridine amine derivatives as phosphatidylinositol phosphate kinase inhibitors” (HiberCell, Inc., priority 2017, dated 2024).

One assay has as its target T1, GST tagged PIP4KtypeIIB (Homo sapiens, UniProt P78356).
T1 construct: made in house; host or cells: E. coli
T1 sequence (P78356 1-416): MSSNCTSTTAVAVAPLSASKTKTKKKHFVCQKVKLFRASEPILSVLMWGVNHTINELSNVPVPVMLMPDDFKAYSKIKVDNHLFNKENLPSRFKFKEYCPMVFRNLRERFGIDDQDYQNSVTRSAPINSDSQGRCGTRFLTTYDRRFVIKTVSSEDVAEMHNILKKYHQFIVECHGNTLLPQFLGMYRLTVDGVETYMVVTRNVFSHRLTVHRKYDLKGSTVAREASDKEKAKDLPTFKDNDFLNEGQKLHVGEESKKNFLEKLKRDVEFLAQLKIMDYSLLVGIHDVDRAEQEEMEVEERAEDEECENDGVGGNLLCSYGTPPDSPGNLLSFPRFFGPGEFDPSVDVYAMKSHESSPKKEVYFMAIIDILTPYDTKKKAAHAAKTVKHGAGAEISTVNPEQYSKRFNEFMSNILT
The assay can be described thus: Trans-FI P kinase assay PIP4K2B (PIP4KtypeIIB inhibition assay). It is filed as biochemical. The note with it: Table 4; compounds listed under IC50 range headings; 100 uM GTP, 5 nM PIP4KIIB; read-out: Trans-FI P kinase assays: PIP4K2B IC50. An excerpt: GST tagged PIP4KtypeIIA and B enzymes were overexpressed in E. Coli and purified to >80% homogeneity. Phosphatidyl inositol-5-phosphate (PI5P, Cat. #850152, Avanti Polar Lipids Inc.) was used as the lipid substrate and phosphatidyl ethanolamine (DOPE 18:1, Cat. #850725, Avanti Polar Lipids Inc.) was used as the carrier lipid for assays. Ultrapure ATP and GTP was purchased from Bellbrooke Labs. ADP Glo reagents were obtained from Promega. Transcreener FI reagent was obtained from Bellbrooke labs.
1. HEPES buffer mix: 200 mM HEPES pH 7.4, 50 mM MgCl2, 0.05% v/v triton×100
2. HNE buffer: 20 mM HEPES, pH 7.4, 100 mM NaCl, 0.5 mM EGTA
3. H:E buffer: 30 mM HEPES, pH 7.4, 1 mM EGTA
GST-tagged PIP4KtypeIIB (3.4 uL, 2.77 mg/mL) was diluted to 5 mL using HNE buffer to yield 5× enzyme stock (25 nM)
Lipid Preparation: In a 10 mL pyrex glass vial, lug of PI5P and lug of DOPE were suspended in 2.5 mL of HEPES buffer mix and 2.5 mL of H:E buffer. The contents were mixed and sonicated for 3 min to yield a translucent lipid stock.
Compound Preparation: Compounds were stored as 5 mM stocks in neat DMSO as room temperature in glass vials. 5 mM stocks were diluted to 2 mM and then serially diluted (3×) in neat DMSO in 96 well polypropylene plates. From the serially diluted stocks, 3 uL was delivered into 250 uL of 25% DMSO (in water) to generate 5× compound stocks. Typically, the highest compound conc. was 24 uM.
The assay volume was kept at 25 uL. To each well of the reaction plate, 10 uL of lipid stock (1:1 ratio PI5P:DOPE) was delivered. This was followed by the addition of 5 uL of compound in 25% DMSO. Then, to each well, 5 uL of 25 nM (5×) typeIIB enzyme was delivered. The contents were mixed well and incubated for 1 h at 27 C. After 1 h, reaction was initiated by adding 5 uL of 500 uM GTP and the contents were mixed well with a multi-channel pipetteman. The final concentration of the reagents are as follows: 50 mM HEPES, pH 7.3, 10 mM MgCl2, 20 mM NaCl, 0.01% v/v triton-X100, 5% DMSO, 100 uM GTP, 80 uM (2 ug) PI5P, 2 ug DOPE, and 5 nM PIP4KIIB Typically, the highest conc. of compounds was 4.8 uM and the lowest conc. was 0.
After 2 h, the reaction was quenched by adding 25 uL of transcreener FI reagent. The contents were incubated at RT for 1 h and the Fluorescence (Ex: 584 Em: 623) was read using Molecular Devices Paradigm plate reader. […] The blanks were averaged and subtracted from all other wells. Using a calibration curve, RFU was converted to uM GDP (product). IC50 was calculated by plotting the residual activity (expressed as % No inhibitor control) vs. log [Inh. conc.] Table 2 represents PI5P4K activity of compounds (Example No.) of the invention arranged in accordance with the inhibition of PIP4K2 A kinase assay.

Assay [1] has as its target T2, PIP4K2A (full length protein, SignalChem) (Homo sapiens, UniProt P48426).
T2 construct: 4 nM PIP4K2A (full length protein, SignalChem); purchased SignalChem
T2 sequence (P48426 1-406): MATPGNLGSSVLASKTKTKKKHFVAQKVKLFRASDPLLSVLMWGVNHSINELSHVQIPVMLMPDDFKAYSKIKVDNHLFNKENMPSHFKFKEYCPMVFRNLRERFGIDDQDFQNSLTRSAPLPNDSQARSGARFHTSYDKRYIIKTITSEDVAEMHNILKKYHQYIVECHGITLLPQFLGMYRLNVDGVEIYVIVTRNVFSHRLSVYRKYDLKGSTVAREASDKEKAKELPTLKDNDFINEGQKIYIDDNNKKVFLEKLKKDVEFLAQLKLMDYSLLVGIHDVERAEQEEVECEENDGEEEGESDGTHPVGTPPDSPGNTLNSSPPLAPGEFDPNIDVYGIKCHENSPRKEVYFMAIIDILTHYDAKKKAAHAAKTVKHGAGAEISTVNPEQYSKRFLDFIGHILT
The assay can be described thus: Kinase Assay PIP4K2 A (Sprint); ADP-Glo biochemical assay. Particulars: Table 2; compounds listed under IC50 range headings. The procedure:
Dilution series of the compounds were prepared in DMSO at 100 times the final assay concentration (n1=n0/3 in 10 points). The compounds were further diluted to three times the assay concentration in assay buffer (20 mM MOPS pH 7.2, 25 mM magnesium chloride, 0.005% Tween 20). 6 μL of the diluted compounds were added to a 384 well assay plate followed by 9 μL of a mix consisting of 4 nM PIP4K2A (full length protein, SignalChem) and 100 μM PI(5)P diC8 (Tebu-Bio). Enzyme and compounds were pre-incubated at room temperature for 15 min.
Then 3 μL of a solution containing 60 μM ATP (Promega) in assay buffer was added to the wells containing compound and enzyme and mixing was performed by pipetting several times. The reaction was incubated at room temperature for 1 h. Then 18 μL of ADP-Glo™ Reagent (Promega) was added to stop the kinase reaction and deplete the unconsumed ATP, mixing was performed by pipetting several times. The plate was incubated at room temperature for 40 min before addition of 36 μL of Kinase Detection Reagent (Promega) to convert ADP to ATP and introduce luciferase and luciferin to detect ATP. The reaction was incubated at room temperature for 40 min before the luminescence was measured in a in a Victor 3V 1420 multilabel counter (Perkin Elmer).
Percent inhibition of the compounds as compared to dimethyl sulfoxide treated control samples was calculated. Compound concentration versus percent inhibition were fitted to generate IC50 values.
For orientation: ADP-Glo turns the ADP formed in a reaction into a luminescent signal.

Some results are limits rather than exact numbers.

Consider `O=C(NCc1nc2ccccc2s1)c1cc2c(-c3cncc(-c4ccc(N5CCCC5=O)cc4)c3)ccnc2[nH]1` [Example 319, N-(benzo[d]thiazol-2-ylmethyl)-4-(5-(4-(2-oxopyrrolidin-1-yl)phenyl)pyridin-3-yl)-1H-pyrrolo[2,3-b]pyridine-2-carboxamide], for which the IC50 – broadly, the concentration that gives 50% inhibition – on GST tagged PIP4KtypeIIB was in the range of 10 to 100 nM; in assay [1], 100 to 1000 nM.
Turning to `CC(C)Cn1cnnc1-c1ccc(-c2cncc(-c3ccnc4[nH]c(C(=O)NCCc5ccncc5)cc34)c2)cc1` [Example 396, 4-(5-(4-(4-isobutyl-4H-1,2,4-triazol-3-yl)phenyl)pyridin-3-yl)-N-(2-(pyridin-4-yl)ethyl)-1H-pyrrolo[2,3-b]pyridine-2-carboxamide], the results for the IC50 (on GST tagged PIP4KtypeIIB; in assay [1]) were 10 to 100 nM and 1000 to 2500 nM, respectively.
On to `O=C1CCCN1c1ccc(-c2cncc(-c3cc(C4CC4)nc4nncn34)c2)cc1` [Example 333, 1-(4-(5-(7-cyclopropyl-[1,2,4]triazolo[4,3-a]pyrimidin-5-yl)pyridin-3-yl)phenyl)pyrrolidin-2-one], for which the IC50 (on GST tagged PIP4KtypeIIB; in assay [1]) was 100 to 1000 nM in each case.
Take `CN1CCn2c(cc3c(-c4cncc(-c5ccc(-c6nncn6C6CCC6)cc5)c4)ccnc32)C1=O` [Example 365, 4-(5-(4-(4-cyclobutyl-4H-1,2,4-triazol-3-yl)phenyl)pyridin-3-yl)-7-methyl-8,9-dihydropyrido[3′,2′:4,5]pyrrolo[1,2-a]pyrazin-6(7H)-one]: the IC50 on GST tagged PIP4KtypeIIB is 10 to 100 nM; in assay [1] it was 1000 to 2500 nM.
For `CN1CCn2c(cc3c(-c4cncc(-c5ccc(C(=O)N6CCC(C)(C)CC6)cc5)c4)ccnc32)C1=O` [Example 335, 4-(5-(4-(4,4-dimethylpiperidine-1-carbonyl)phenyl)pyridin-3-yl)-7-methyl-8,9-dihydropyrido[3′,2′:4,5]pyrrolo[1,2-a]pyrazin-6(7H)-one], the IC50 (at GST tagged PIP4KtypeIIB; in assay [1]) was 100 to 1000 nM in each case.
As to `Cn1c(CNC(=O)c2cc3c(-c4cncc(-c5ccc(N6CCCC6=O)cc5)c4)ccnc3[nH]2)nc2ccccc21` [Example 321, N-((1-methyl-1H-benzo[d]imidazol-2-yl)methyl)-4-(5-(4-(2-oxopyrrolidin-1-yl)phenyl)pyridin-3-yl)-1H-pyrrolo[2,3-b]pyridine-2-carboxamide], the IC50 on GST tagged PIP4KtypeIIB was 100 to 1000 nM; in assay [1] it was less than 5000 nM.
For `Cc1noc2nccc(-c3cncc(-c4ccc(N5CCCC5=O)cc4)c3)c12` [Example 307, 1-(4-(5-(3-methylisoxazolo[5,4-b]pyridin-4-yl)pyridin-3-yl)phenyl)pyrrolidin-2-one] the same measures were 100 to 1000 nM and 1000 to 2500 nM.
In the same order, the values of `O=C(c1cc2c(-c3cncc(-c4ccc(N5CCCC5=O)cc4)c3)ccnc2[nH]1)N1CCCC2(CCCO2)C1` (stereo not shown) [Example 332, 1-(4-(5-(2-(1-oxa-7-azaspiro[4.5]decane-7-carbonyl)-1H-pyrrolo[2,3-b]pyridin-4-yl)pyridin-3-yl)phenyl)pyrrolidin-2-one] are 100 to 1000 nM and 100 to 1000 nM.
For `CC(C)n1cnnc1-c1ccc(-c2cncc(-c3ccnc4[nH]c(C(=O)NCc5cccnc5)cc34)c2)cc1` [Example 378, 4-(5-(4-(4-isopropyl-4H-1,2,4-triazol-3-yl)phenyl)pyridin-3-yl)-N-(pyridin-3-ylmethyl)-1H-pyrrolo[2,3-b]pyridine-2-carboxamide] the same measures were 10 to 100 nM and 100 to 1000 nM.
Turning to `CC(C)n1cnnc1-c1ccc(-c2cc(-c3ccnc4c3cc3n4CCN(CC4CC4)C3=O)cnc2N)cc1` [Example 374, 4-(6-amino-5-(4-(4-isopropyl-4H-1,2,4-triazol-3-yl)phenyl)pyridin-3-yl)-7-(cyclopropylmethyl)-8,9-dihydropyrido[3′,2′:4,5]pyrrolo[1,2-a]pyrazin-6(7H)-one], the half-inhibitory concentration (IC50) lay within 1 to 10 nM on GST tagged PIP4KtypeIIB and 100 to 1000 nM in assay [1].
Take `CN1CCn2c(cc3c(-c4cncc(-c5ccc(C(=O)N6C7CCC6CC7)cc5)c4)ccnc32)C1=O` [Example 382, 4-(5-(4-(7-azabicyclo[2.2.1]heptane-7-carbonyl)phenyl)pyridin-3-yl)-7-methyl-8,9-dihydropyrido[3′,2′:4,5]pyrrolo[1,2-a]pyrazin-6(7H)-one]: the IC50 (on GST tagged PIP4KtypeIIB; in assay [1]) was 100 to 1000 nM throughout.
On to `O=C(c1cc2c(-c3cncc(-c4ccc(N5CCCC5=O)cc4)c3)ccnc2[nH]1)N1CCCC(O)(C2CC2)C1` (stereo not shown) [Example 210, 1-(4-(5-(2-(3-cyclopropyl-3-hydroxypiperidine-1-carbonyl)-1H-pyrrolo[2,3-b]pyridin-4-yl)pyridin-3-yl)phenyl)pyrrolidin-2-one], for which the IC50 (on GST tagged PIP4KtypeIIB; in assay [1]) was 100 to 1000 nM each time.
As to `CN1CCn2c(cc3c(-c4cncc(-c5ccc(N6CCCS6(=O)=O)cc5)c4)ccnc32)C1=O` [Example 386, 4-(5-(4-(1,1-dioxidoisothiazolidin-2-yl)phenyl)pyridin-3-yl)-7-methyl-8,9-dihydropyrido[3′,2′:4,5]pyrrolo[1,2-a]pyrazin-6(7H)-one], the IC50 (at GST tagged PIP4KtypeIIB; in assay [1]) was 100 to 1000 nM throughout.
For `CN(C(=O)c1cc2c(-c3cncc(-c4ccc(N5CCCC5=O)cc4)c3)ccnc2[nH]1)c1ccccc1` [Example 311, N-methyl-4-(5-(4-(2-oxopyrrolidin-1-yl)phenyl)pyridin-3-yl)-N-phenyl-1H-pyrrolo[2,3-b]pyridine-2-carboxamide], the values for the IC50 (at GST tagged PIP4KtypeIIB; in assay [1]) were 100 to 1000 nM and 1000 to 2500 nM, respectively.
